The results in this text go back to patent US11147816B2, “Composition for inducing differentiation and protection of neural stem cells and method for inducing neuro-regeneration using the same composition” (GENUV Inc., priority 2016, dated 2021).

SMILES strings stand for the structures.

Assay [1] relates to 5XFAD mouse. Description: BrdU staining in the hippocampal dentate gyrus (Example 9-3). The conditions noted are these: orally daily for 28 days, vs vehicle.
Description: For the BrdU staining to be performed later, 50 mg/kg of BrdU (Sigma, cat#. B5002) was added to the daily dose for the last 5 days. The mouse was then anesthetized and perfused with PBS for the extraction of the brain. Of the brains extracted from 3 mice of each group, half of the brain tissue (hemispheres) was immediately stored in the deep freezer for western blotting and ELISA experiments to be performed later. The other half of the hemispheres plus another 3 extracted mice brains per group were placed in 10% formalin solution at 4° C. for 1 day, which was then followed with the proceeding steps to allow good penetration of paraffin into the brain tissue. The brain tissues were immersed sequentially in 70%, 80%, 95%, 100% alcohol for 1 hour each for dehydration, then immersed in xylene 3 times for 1 hour each for clearing, and embedded in paraffin by placing in liquid paraffin 2 times for 1 hour each. After these procedures, the paraffin-embedded brain tissue (paraffin block) was cut into 5 μm sections, mounted on slides, and stored at room temperature. Prior to immunohistochemical staining, the tissues on the slides were rehydrated by sequentially immersing in xylene, 100%, 90%, 80%, 70%, 50% alcohol,and then water for 5 minutes each. […]
Assay [2] has as its system mouse adult neural stem cells. Description: qRT-PCR of relative mRNA expression of neuronal markers in mouse adult NSC (Example 4-2). The class given is cell-based. The conditions noted are these: 10 nM for 2 days.
In assay [3] the test system is mouse embryonic neural stem cells. Description: Immunocytochemistry analysis, Tuj1 and DAPI staining (Example 3). The class given is cell-based. The conditions noted are these: 10 nM, 4 days. As for the experimental part:
Tuj1 (Neuron specific class III beta-tubulin) is a neuron specific marker protein, which was conjugated to rhodamine to show fluorescent red, while DAPI binds to the cell DNA and stains the cell nuclei fluorescent blue. […] The medium was removed and the cells were washed with PBS. After fixing with 10% formaldehyde (Sigma cat#. HT501128) at room temperature for 10 minutes, they were washed again with PBS. They were permeabilized with 0.2% Triton X-100 (Sigma, cat#. 93443) at room temperature for 15 minutes, washed with PBS, and incubated with 10% BSA (Sigma, cat#. A2153)+1% normal goat serum (Vector lab, Burlingame, Calif., cat#. S1000) at room temperature for 1 hour. […] The solution was removed, washed with PBS, and incubated at room temperature for 1 hour with the secondary antibody (rhodamine-conjugated antibody) diluted in 1% BSA+1% normal goat serum at a ratio of 1:200. Then, the cells were washed with PBS, incubated with 5 μg/ml DAPI (Sigma, cat#. D9542) for 5 minutes, washed with PBS again, and mounted on a slide glass for analysis with a fluorescent microscope.

For assay [4] the test system is unchanged. Description: qRT-PCR of relative mRNA expression of neuronal markers in mouse embryonic NSC (Examples 4-1, 4-2, 6). In kind it is cell-based. The conditions noted are these: 1 nM. As for the experimental part:
Isopropanol (Ducsan, GyunggiDo, Korea, cat#. 67-63-0) was added and mixed for RNA isolation, then centrifuged again to remove the supernatant and obtain the pellet. The RNA pellet was resuspended in 75% ethanol (Ducsan, cat#. 64-17-15), centrifuged, and the supernatant removed. The pellet was then resuspended in sterilized triple distilled water to obtain the mRNA, incubated for 10 minutes at 55° C., and stored at −80° C.
Sterilized triple distilled water, […] oligo dT, and 1 mM dNTP were added to the RNA and incubated for 5 minutes at 65° C. This was followed by the addition of 5X First-strand buffer, 10 mM DTT, and M-MLV reverse transcriptase and incubated at 42° C. for 1 hour, then at 72° C. for 15 minutes, and at 4° C. for 30 minutes. The synthesized cDNA was stored at −20° C.
The term relative mRNA expression level signifies that in order to normalize each group's total RNA level, the mRNA expression level of each differentiation marker is divided by the expression level of GAPDH whose expression level is fairly constant across cells, and then the values of each test material are compared with those of the controls (undifferentiated NSC) in each group.

Assay [5] deals with 5XFAD mouse. Description: Nissl, NeuN and DCX staining in the hippocampal dentate gyrus (Example 9-2). As to conditions: orally daily for 28 days. In kind it is in vivo. Here is the method: After placing in 0.1% cresyl violet (Sigma, cat#. C5042) solution at room temperature for 15 minutes, they were dehydrated by sequentially immersing in 80%, 90%, 100% alcohol, and xylene. Coverslips were put on the slides and the neurons examined.
NeuN staining was performed by the same method as described in Example 8 as was DCX staining, but using anti-DCX antibodies (Santa Cruz, cat#. sc271390) instead of anti-NeuN antibodies.

Setting [6] is: 10 nM, 25 nM, 100 nM for 2 days.

With `CC(=O)Nc1cccc(-n2c(=O)n(C3CC3)c(=O)c3c(Nc4ccc(I)cc4F)n(C)c(=O)c(C)c32)c1` [trametinib, N-(3-{3-cyclopropyl-5-[(2-fluoro-4-iodophenyl)amino]-6,8-dimethyl-2,4,7-trioxo-3,4,6,7-tetrahydropyrido[4,3-d]pyrimidin-1(2H)-yl}phenyl)acetamide], the “number of BrdU stained cells in the dentate gyrus” value in the assay with 5XFAD mouse [1] is given as “an increase in the number of cells stained with BrdU”. Besides, in assay [2], the “mRNA expression of cholinergic neuron marker ChAT” value was “increased the expression”, the “mRNA expression of dopaminergic neuron marker TH” value is “increased the expression” and the “mRNA expression of neuronal marker Tuj1” value is given as “increased the expression”. Moreover, the “neuron differentiation by Tuj1 staining” value in assay [3] was “showed increasingly active differentiation activity”. Also, the “differentiation-inducing effect (Tuj1, TH mRNA)” value in assay [4] is “exerted its differentiation-inducing effect”. Besides, in assay [4] (setting [6]), the “mRNA expression of GABAergic neuron marker Gad1” value is “increased with the increase in concentration of the trametinib added”, the “mRNA expression of cholinergic neuron marker ChAT” value is “increased with the increase in concentration of the trametinib added”, the “mRNA expression of dopaminergic neuron marker TH” value is reported as “increased with the increase in concentration of the trametinib added” and the “mRNA expression of motor neuron marker Isl1” value was “increased with the increase in concentration of the trametinib added”. In the assay with 5XFAD mouse [5], the “immature neurons stained by DCX in the dentate gyrus” value was “seen to be present” and the “number of cells with morphology of Type 2 or Type 3 cells in the subgranular zone of the dentate gyrus (Nissl, NeuN)” value is listed as “increased considerably”.
